Results from patent US10717720B2, “Modified compound of andrographolide” (Heilongjiang Zhenbaodao Pharmaceutical Co., Ltd., priority 2015, dated 2020).

Tested on: LPS-induced IL-6 release level from THP-1 cells
Assay: Test of IL-6 release from THP-1 cells (LPS-induced, IL-6 in supernatant detected by CBA)
Format: cell-based
Conditions: Homo sapiens; inflammatory factor IL-6 detected by CBA; compound 10 uM; LPS-stimulated THP-1 cells, supernatant after 24 hours; read-out: Inhibition rate @ 10 uM
How it was run: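 THP-1 cells were treated with compound at final 30, 10, 3 and 1 uM, with dexamethasone 100 nM as reference, then stimulated with LPS. The LPS working solution was 800 ng/ml. After 24 h at 37 °C, IL-6 in the supernatant was measured by CBA.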

Compound	inhibition at 10 µM
C=C1CCC2[C@]3(C)CO[C@@H](C4CCCC4)O[C@@H]3CC[C@@]2(C)[C@@H]1CCOc1cccnc1C(=O)O (stereo partly drawn) [Compound 431, 3-(2-((3R,4aR,6aS,7R,10bR)-3-cyclopentyl-6a,10b-dimethyl-8-dihydromethylenedecahydro-1H-naphtho[2,1-d][1,3]dioxin-7-yl)ethoxy)-2-picolinic acid]	> 60%
C=C1CCC2[C@]3(C)CO[C@@H](C4CCCC4)O[C@@H]3CC[C@@]2(C)[C@@H]1CCOc1ccc(C(=O)O)nc1 (stereo partly drawn) [Compound 432, 5-(2-((3R,4aR,6aS,7R,10bR)-3-cyclopentyl-6a,10b-dimethyl-8-dihydromethylenedecahydro-1H-naphtho[2,1-d][1,3]dioxin-7-yl)ethoxy)-2-picolinic acid]	> 60%
C=C1CCC2[C@]3(C)CO[C@@H](C4CC4)O[C@@H]3CC[C@@]2(C)[C@@H]1CCOc1ccncc1 (stereo partly drawn) [Compound 400, 4-(2-((3R,4aR,6aS,7R,10bR)-3-cyclopropyl-6a,10b-dimethyl-8-dihydromethylenedecahydro-1H-naphtho[2,1-d][1,3]dioxin-7-yl)ethoxy)pyridine]	> 60%
C=C1CCC2[C@]3(C)CO[C@@H](CCC(=O)O)O[C@@H]3CC[C@@]2(C)[C@@H]1CCOc1ccncc1 (stereo partly drawn) [Compound 408]	< 30%
C=C1CCC2[C@]3(C)CO[C@@H](C4CCCC4)O[C@@H]3CC[C@@]2(C)[C@@H]1CCN(CCO)CCCN(C)C (stereo partly drawn) [Compound 284, 2-((2-((3R,4aR,6aS,7R,10bR)-3-cyclopentyl-6a, 10b-dimethyl-8-methylene-decahydro-1H-naphtho[2,1-d][1,3]dioxin-7-yl)ethyl)(3-(dimethylamino)propyl)amino)ethanol]	30 to 60%
C=C1CCC2[C@]3(C)CO[C@@H](C4CCC4)O[C@@H]3CC[C@@]2(C)[C@@H]1CCOc1ccncc1 (stereo partly drawn) [Compound 412, 4-(2-((3R,4aR,6aS,7R,10bR)-3-cyclobutyl-6a,10b-dimethyl-8-dihydromethylenedecahydro-1H-naphtho[2,1-d][1,3]dioxin-7-yl)ethoxy)pyridine]	> 60%
C=C1CCC2[C@]3(C)CO[C@@H](c4ccc(F)c(F)c4)O[C@@H]3CC[C@@]2(C)[C@@H]1CCN1CCC(CO)CC1 (stereo partly drawn) [Compound 130, (1-(2-((3R,4aR,6aS,7R,10bR)-3-(3,4-difluorophenyl)-6a,10b-dimethyl-8-methylenedecahydro-1H-naphtho[2,1-d][1,3]dioxin-7-yl)ethyl)piperidin-4-yl)methanol]	< 30%
C=C1CCC2[C@]3(C)CO[C@@H](C4CCCC4)O[C@@H]3CC[C@@]2(C)[C@@H]1CCOc1cnn(C)c1 (stereo partly drawn) [Compound 289, 4-(2-((3R,4aR,6aS,7R,10bR)-3-cyclopentyl-6a,10b-dimethyl-8-dihydromethylenedecahydro-1H-naphtho[2,1-d][1,3]dioxin-7-yl)ethoxy)-2-methyl-1H-pyrazole]	> 60%
C=C1CCC2[C@]3(C)CO[C@@H](C4CCCC4)O[C@@H]3CC[C@@]2(C)[C@@H]1CCNCC(=O)O (stereo partly drawn) [Compound 403, 2-((2-((3R,4aR,6aS,7R,10bR)-3-cyclopentyl-6a,10b-dimethyl-8-methylenedecahydro-1H-naphtho[2,1-d][1,3]dioxin-7-yl)ethyl)amino)acetic acid]	< 30%
C=C1CCC2[C@]3(C)CO[C@@H](C(C)C)O[C@@H]3CC[C@@]2(C)[C@@H]1CCOc1ccncc1 (stereo partly drawn) [Compound 411, 4-(2-((3R,4aR,6aS,7R,10bR)-3-isopropyl-6a,10b-dimethyl-8-dihydromethylenedecahydro-1H-naphtho[2,1-d][1,3]dioxin-7-yl)ethoxy)pyridine]	> 60%
C=C1CCC2[C@]3(C)CO[C@@H](C4CCCC4)O[C@@H]3CC[C@@]2(C)[C@@H]1CCOC1CCN(CC(=O)O)CC1 (stereo partly drawn) [Compound 426, 2-(4-(2-((3R,4aR,6aS,7R,10bR)-3-cyclopentyl-6a,10b-dimethyl-8-dihydromethylenedecahydro-1H-naphtho[2,1-d][1,3]dioxin-7-yl)ethoxy)piperidine-1-yl)acetic acid]	30 to 60%
C=C1CCC2[C@]3(C)CO[C@@H](C4CCCC4)O[C@@H]3CC[C@@]2(C)[C@@H]1CCOc1cc(C)ccc1C(=O)O (stereo partly drawn) [Compound 447, 2-(2-((3R,4aR,6aS,7R,10bR)-3-cyclopentyl-6a,10b-dimethyl-8-dihydromethylenedecahydro-1H-naphtho[2,1-d][1,3]dioxin-7-yl)ethoxy)-4-methylbenzoic acid]	< 30%
C=C1CCC2[C@](C)(CO)[C@H](O)CC[C@@]2(C)[C@@H]1CCN1CCC(CO)CC1 (stereo partly drawn) [Compound 265]	< 30%
C=C1CCC2[C@]3(C)CO[C@@H](C4CCCC4)O[C@@H]3CC[C@@]2(C)[C@@H]1CCN1CC(CO)C1 (stereo partly drawn) [Compound 355]	< 30%
C=C1CCC2[C@]3(C)CO[C@@H](C4CCCC4)O[C@@H]3CC[C@@]2(C)[C@@H]1CCN1CCC(N(CC)CC)CC1 (stereo partly drawn) [Compound 150, 1-(2-((4aR,6aS,7R,10bR)-3-cyclopentyl-6a,10b-dimethyl-8-methylene-decahydro-1H-naphtho[2,1-d][1,3]dioxin-7-yl)ethyl)-N,N-diethylpiperidin-4-amine]	30 to 60%
